From patent US10206893B2, “Immunoregulatory agents” (Flexus Biosciences, Inc., priority 2014, dated 2019) come the findings set out here.

Some results are limits rather than exact numbers.

This assay addresses T1, human IDO1 (Homo sapiens, UniProt P14902).
T1 construct: expressed in transfected cells
Briefly: IDO inhibition assay in HEK293 cells stably expressing human IDO1 (kynurenine, Ehrlich reagent). It is filed as cell-based. The conditions noted are these: 20 hours incubation, read-out: HEK Human IDO-1 Bio Activity. On the procedure:
They were cultured in medium (DMEM with 10% FBS) containing 1 mg/ml G418 for two weeks.
The human IDO1/HEK293 cells were seeded at 10,000 cells per 50 μL per well with RPMI/phenol red free media contains 10% FBS in a 384-well black wall clear bottom tissue culture plate (Matrix Technologies LLC) 100 nL of certain concentration of compound was then added to each well using ECHO liquid handling systems. The cells were incubated for 20 hours in 37° C. incubator with 5% CO2.
The compound treatments were stopped by adding trichloroacetic acid (Sigma-Aldrich) to a final concentration at 0.2%. The cell plate was further incubated at 50° C. for 30 minute. The equal volume supernatant (20 μL) and 0.2% (w/v) Ehrlich reagent (4-dimethylaminobenzaldehyde, Sigma-Aldrich) in glacial acetic acid were mixed in a new clear bottom 384-well plate. This plate was then incubated at room temperature for 30 minute. The absorbance at 490 nm was measured on Envision plate reader.

T1 sequence (P14902 whole entry): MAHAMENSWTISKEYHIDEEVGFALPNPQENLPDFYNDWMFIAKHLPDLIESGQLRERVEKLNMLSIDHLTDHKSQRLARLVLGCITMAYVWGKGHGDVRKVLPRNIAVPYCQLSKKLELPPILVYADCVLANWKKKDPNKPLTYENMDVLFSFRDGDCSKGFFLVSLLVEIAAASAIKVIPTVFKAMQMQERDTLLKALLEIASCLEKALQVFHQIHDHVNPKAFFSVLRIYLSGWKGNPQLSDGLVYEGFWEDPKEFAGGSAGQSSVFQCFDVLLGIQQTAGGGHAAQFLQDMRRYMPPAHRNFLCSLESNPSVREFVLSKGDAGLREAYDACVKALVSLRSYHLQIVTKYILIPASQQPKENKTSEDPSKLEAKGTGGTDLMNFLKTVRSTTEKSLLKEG

In the case of `CC(NC(=O)c1ccc(Cl)cc1)C1CCC(c2ccncc2F)CC1` (single isomer, unassigned) [Example 161b, 4-chloro-N-(1-(4-(3-fluoropyridin-4-yl)cyclohexyl)ethyl)benzamide], the IC50 is less than 50 nM.
Take `CC(NC(=O)c1ccc(Cl)cc1)C1CCC(c2ccncc2F)CC1` (single isomer, unassigned) [Example 161c, 4-chloro-N-(1-(4-(3-fluoropyridin-4-yl)cyclohexyl)ethyl)benzamide]: the IC50 was less than 250 nM.
Turning to `N#Cc1ccc(NC(=O)N[C@H]2CC[C@H](c3ccnc4ccc(F)cc43)CC2)cc1` [Example 121], the IC50 was less than 250 nM.
Consider `CCC(NC(=O)c1ccc(-c2ccccc2)cc1)[C@H]1CC[C@@H](c2cnc3ccccc3c2)CC1` (some centres unmarked) [Example 200], for which the IC50 was less than 250 nM.
Take `CC[C@@H](NC(=O)c1ccc(-c2ccccc2)cc1)[C@H]1CC[C@H](c2cnc3ccccc3c2)CC1` [Example 201, N—((R)-1-((1r,4R)-4-(quinolin-3-yl)cyclohexyl)propyl)-[1,1′-biphenyl]-4-carboxamide]: the IC50 was less than 250 nM.
In the case of `CC[C@H](NC(=O)c1ccc(-c2ccccc2)cc1)[C@H]1CC[C@H](c2cnc3ccccc3c2)CC1` [Example 202, N—((S)-1-((1r,4S)-4-(quinolin-3-yl)cyclohexyl)propyl)-[1,1′-biphenyl]-4-carboxamide], the IC50 was less than 50 nM.
The figure for `COc1ccc(-c2ccc(C(=O)N[C@H](C)[C@H]3CC[C@@H](c4ccnc5ccc(F)cc54)CC3)cc2)nc1` [Example 239, N-((R)-1-((1s,4S)-4-(6-fluoroquinolin-4-yl)cyclohexyl)ethyl)-4-(5-methoxypyridin-2-yl)benzamide] is less than 50 nM; for “(R)-1-(cis-4-(6-fluoroquinolin-4- yl)cyclohexyl)-N-methylethanamine [Example 194]” it is less than 50 nM.
